Results from patent publication US20150238444A1, “CHLORHEXIDINE GLUCONATE SOLUBILIZED IN A HYDROPHOBIC MONOACYLGLYCERIDE” (3M INNOVATIVE PROPERTIES COMPANY, priority 2012, published 2015).

Experiment: Screening of CHG solubility in hydrophobic vehicles after vacuum-stripping water
Type: physicochemical
Description: General Method for Vacuum-Stripping Water from CHG Solutions. A 25 g sample of CHG/water solution (20 wt. CHG) was added to 45 g of the hydrophobic monoacylglyceride of interest in a 200 mL round bottom flask. The flask was put in a 60° C. oil bath and stirred with a magnetic stir bar. Vacuum (less than 3.3 kilopascal (25 Torr)) was pulled until bubbling stopped and the weight had closely approached the theoretical value of 50 grams—usually 30-90 minutes. […] In those cases, after nearly all the water was removed, additional hydrophobic monoacylglyceride was added to bring the final weight to 50 grams.
Screening tests were conducted to determine the solubility of CHG in a variety of hydrophobic vehicles. Samples were prepared by mixing CHG (20 wt. % solution in water, obtained from Xttrium Laboratories Inc., Chicago, Ill.) with the vehicle and vacuum stripping in accordance with the General Method for Vacuum-Stripping Water from CHG Solutions. The resulting concentration of CHG and residual water were determined. Also, the final state of the solution was qualitatively evaluated to determine whether the mixture was transparent and apparently homogenous, or clearly inhomogeneous.

[1] = after vacuum stripping of water from CHG/vehicle mixture

Compound | Experimental Solubility with CHG | Final State (CHG 10 wt. %, 23-60° C.) | Water wt. % (residual water) [1] | further results
CCCCCCCC(=O)OCC(O)CO (stereo not drawn) [Glyceryl monocaprylate] | Yes |  |  | Final State (CHG 20 wt. %, 23-60° C.): Homogeneous
CC(C)CCCCCCCCCCCCCCC(=O)OCC(O)CO (stereo not drawn) [Glyceryl monoisostearate] | Yes | Homogeneous |  | Final State (CHG 16 wt. %, 23-60° C.): Homogeneous; Final State (CHG 20 wt. %, 60° C.): Homogeneous
CCCCCCCCCCCC(=O)OCC(O)CO (stereo not drawn) [Glyceryl monolaurate] | Yes |  | 0.7% wt. % | Final State (CHG 20 wt. %, 75° C.): Homogeneous
CCCCCCCC/C=C\CCCCCCCC(=O)OCC(O)CO (stereo not drawn) [Glyceryl monooleate] | Yes | Homogeneous | 0.3% wt. % | 
CCCCCCCCCCCCCCCCCC(=O)OCC(O)CO (stereo not drawn) [Glyceryl monostearate] | Yes |  | 0.2% wt. % | Final State (CHG 10 wt. %, 80° C.): Homogeneous
Polyglycerol-2-Triisostearate | No | Inhomogeneous |  | CHG wt. % (resulting concentration of CHG in the vehicle) [1]: 10% wt. %
Trigyceryl diisostearate | No | Inhomogeneous |  | Final State (CHG 1 wt. %, 23-60° C.): Inhomogeneous
